Columns and labels:
D-SA = assay: binding of D-biotin to D-SA, by mirror-image symmetry from L-biotin/L-SA ITC; conditions: orthogonality, inferred by mirror-image symmetry
Description: As detailed herein, mirror-image SA and biotin (D-SA/L-biotin) offer an elegant solution to circumvent the limitations encountered with L-SA/D-biotin systems. For example, D-proteins are inert to L-proteases and therefore cannot be digested for MHC presentation to the immune system. […] Therefore, it is proposed that D-SA/L-biotin can be used as a biotin orthogonal streptaviding system (BOSS). Without wishing to be bound by theory, it is hypothesized that the orthogonality of BOSS, along with D-SA's low immunogenicity, will overcome the limitations of natural SA/biotin.
First, a control isothermal titration calorimetry (ITC) experiment was performed. […] This titration data was fit using Origin software to calculate binding stoichiometry (N=0.97±0.003 sites) and enthalpy (ΔH=−27.72±0.18 kcal/mol), as shown in FIG. 2A.

[1] = target: T1, L-SA (recombinant SA, Novus Biologicals) (Streptomyces avidinii, UniProt P22629); assay: isothermal titration calorimetry (ITC), biotin enantiomer titrated into recombinant L-SA; assay type: binding; conditions: fit using Origin software
T1 construct: purchased Novus Biologicals
Method: First, a control isothermal titration calorimetry (ITC) experiment was performed.

T1 sequence (P22629 37-163): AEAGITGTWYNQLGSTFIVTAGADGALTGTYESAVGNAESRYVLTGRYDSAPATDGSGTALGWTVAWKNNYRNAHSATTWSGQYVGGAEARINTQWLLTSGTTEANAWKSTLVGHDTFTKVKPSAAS

O=C(O)CCCC[C@@H]1SC[C@@H]2NC(=O)N[C@@H]21 [D-biotin]
binding to D-SA (D-SA): minimal binding | enthalpy (ΔH) [1]: -27.72 ± 0.18 kcal/mol

Source: patent US20250304705A1, “BIOTIN ORTHOGONAL STREPTAVIDIN SYSTEM” (UNIVERSITY OF UTAH RESEARCH FOUNDATION, priority 2022, published 2025)
